Tests used:
[1] = system: Peyer's patch cells; assay: Effects of saccharides on IFN-γ and IL-4 production of Peyer's patch cells in vitro (ELISA); format: cell-based, mice; details: saccharide 0.1 mg/ml; for Relative amount of IFN-γ / Relative amount of IL-4: 72 hours, relative to control; for IFN-γ production by stimulation of concanavalin A (in words): in vitro
Method: To investigate direct effects of various saccharides on Peyer's patch cells, the amounts of IFN-γ and IL-4 produced in Peyer's patch cells taken from mice by adding various kinds of saccharide in an in vitro experiment. After six-week-old female BALB/c mice were preliminarily grown for a week with a standard growth purified diet (AIN-93G), their Peyer's patch cells were collected according to the method of Experiment 3. The cell suspension at a concentration of 1×10^6 cells/ml was prepared with RPMI1640 medium containing 10% FCS and 10 mM HEPES and seeded in 24-well microplates by 1 ml/well. After the test saccharides (the cyclic tetrasaccharide, nigerose or isomaltose) were added in an amount of 0.1 mg/ml and lipopolysaccharide (LPS) or concanavalin A (ConA) of 2 μg/ml, they were cultured at 37° C. for 72 hours in an atmosphere of 5% carbon dioxide. The amounts of IFN-γin the supernatants were measured by the ELISA method using anti-mouse- IFN-γ antibodies (MURINE IFN-γELISA DEVELOPMENT KIT, produced by PeproTech, Inc.), and the amounts of IL-4 were measured by the ELISA method using anti-mouse-IL-4 antibodies (Mouse IL-4 ELISA DEVELOPMENT KIT, produced by Genzyme-Techne). As a control, the amounts of IFN-γ and IL-4 produced in Peyer's patch cells cultured with the medium without adding the test saccharides by the same way described above. The values in Table 5 were shown as the relative amounts (%) to control.

[2] = system: female BALB/c mice; assay: IgA content in feces of mice fed saccharide-supplemented purified diet (ELISA); format: in vivo; details: for IgA content in feces: average of five mice
Method: To investigate immunomodulating effects of various saccharides, IgA contents in feces of mice administered saccharides were measured. After six-week-old female BALB/c mice were preliminarily grown for a week with AIN-93G, which is a standard growth purified diet for nutritional study using mice or rats introduced by American Institute of Nutrition in 1993, they were separated in groups of five mice each, and unlimitedly administered the test diets, which is made by supplementing 5 w/w % of the cyclic tetrasaccharide (produced in Example 2), 5 w/w % of nigerooligosaccharide (12.5 w/w % of “NISSHOKU TASTE OLIGO SYRUP”, containing 40% or more of nigerooligosaccharide on a dry solid basis, commercialized by Nihon Shokuhin Kako Co., Ltd.), or 5 w/w % of isomaltooligosaccharide (“ISOMALT 90” commercialized by Hayashibara Shoji, Inc.) to the same formula diet described above except the amount of corn starch was reduced by the relevant weight of the added test saccharide. As control, one group was administered with the standard growth purified diet (AIN-93G) without the test saccharides described above. After 1, 2, 3 and 4 weeks from the initial administration of the test or control diets, fresh feces were taken from each mouse and IgA content was measured by the ELISA method using anti-IgA antibody (MOUSE IgA ELISA QUANTITATION KIT produced by Bethyl Laboratories, Inc). The values expressed in percent in Table 1 mean the relative amounts with respect to control in each week.

[3] = system: female BALB/c mice; assay: Amounts of organic acids in cecal contents of mice ingesting the saccharides (ion chromatography); format: in vivo
Method: To investigate the effects of the various saccharides on the enteric environment of mice, the contents of organic acids in the cecal contents were measured. After the cecal contents taken from the mice administered the purified diet containing the test saccharides or the control purified diet in Experiment 2 were suspended in an adequate amount of purified water, their supernatants collected by centrifugation were filtered with membrane (pore size of 0.45 μm). The filtrates were subjected to an ion chromatoanalyzer IC500P (produced by Yokogawa Electric Corporation) loaded with precolumn PCS5-052 and separation column SCS5-252, and eluted with 2 mM sulfuric acid (1.0 ml/min) to analyze the amounts of organic acids. The values expressed in percent in Table 4 mean the relative amounts of each organic acid in the cecal contents to those of the control mice.

[4] = system: female BALB/c mice; assay: Analysis of cecal contents (pH, weight, IgA, IgG) of mice fed saccharide diets for 4 weeks; format: in vivo
Method: To investigate the immunomodulating effect of the various saccharides, IgA content and IgG content in the cecal contents of the mice administered saccharides were measured. After the mice fed on the purified diet containing the test saccharide or the control purified diet (AIN-93G) for 4 weeks in Experiment 1 were killed, their cecums were surgically removed. After the pH and weight of the cecum contents were measured, IgA content and IgG content in the cecal contents were measured. IgA content was measured by ELISA method using anti-IgA antibodies and IgG content was measured by ELISA method using anti-IgG antibodies (MOUSE IgG ELISA QUANTITATION KIT produced by Bethyl Laboratories, Inc) and the amounts of the antibodies per gram of the cecal contents were obtained.

[5] = system: Peyer's patch cells; assay: IgA, IL-6 and TGF-β produced by Peyer's patch cells taken from mice administered the saccharides (ConA culture, ELISA); format: in vivo
Method: To investigate the immnomodulating effect of the various saccharides, the contents of IgA, IL-6 and TGF-βproduced by the Peyer's patch cells taken from the mice administered the saccharides. After the Peyer's patches taken from the mice administered with the purified diet containing the test saccharides or the control purified diet in Experiment 2 were cut by scissors, they were treated in 0.2 w/w % collagenase solution at 37° C. for 30 minutes. They were filtered through a cell strainer and the filtrate containing the cells were centrifuged to give the cell precipitates. They were suspended in 45 w/w % PARCOR (commercialized by Amersham, PLC), the cell suspensions were layered on 75 w/w % PARCOR and centrifuged for 10 minutes at 1,000 g. Cells floating at the interface between 45 w/w % PARCOR and 75 w/w % PARCOR were collected and suspended in RPM1164 medium containing 10% FCS and 10 mM HEPES to give the cell suspensions at a concentration of 1×10^6 cells/ml. They were seeded in 24-well microplates by 1 ml/well, added with 2 μg/m1 of concanavalin A, and cultured at 37° C. for 48 hours in atmosphere of 5% carbon dioxide. The culture supernatant was collected from each well and their IgA contents, TGF-βcontents or IL-6 contents were measured by ELISA method using anti-mouse-IgA antibody, anti-mouse-IL-6 antibody and anti-mouse-TGF-μ1 antibody, then the averages were calculated from the data of five mice. The values in Table 3 means relative amounts (%) to IgA, IL-6 or TGF-β amount produced in Peyer's patch cells taken from the control mice.

[6] = cecal contents, 4 weeks on 5 w/w % saccharide diet
[7] = after 4 weeks on 5 w/w % saccharide diet
[8] = after 4 weeks on 5 w/w % saccharide diet, per gram of cecal contents
[9] = cells from mice administered the saccharide
[10] = relative to Peyer's patch cells of control mice, 2 μg/ml concanavalin A, 48 hours, average of five mice

With `OC[C@H]1O[C@H](OC[C@H]2OC(O)[C@H](O)[C@@H](O)[C@@H]2O)[C@H](O)[C@@H](O)[C@@H]1O` (stereo partly shown) [Isomaltose, isomaltose] the “Relative amount of IFN-γ” value ([1]; ConA 2 μg/ml) was 53%, the “Relative amount of IL-4” value ([1]; ConA 2 μg/ml) was 100% and the “Relative amount of IFN-γ” value ([1]; LPS 2 μg/ml) was 100%. For the same compound, the “Relative amount of IL-4” value ([1]; LPS 2 μg/ml) was 97% and the “IFN-γ production by stimulation of concanavalin A (in words)” value (“IFN-γ production by stimulation” for short) [1] was “suppressed”.

For `OC[C@H]1O[C@@H]2OC[C@H]3O[C@H](O[C@@H]4[C@@H](O)[C@@H](OC[C@H]5O[C@H](O[C@H]([C@H]2O)[C@@H]1O)[C@H](O)[C@@H](O)[C@@H]5O)O[C@H](CO)[C@H]4O)[C@H](O)[C@@H](O)[C@@H]3O` [Cyclic tetrasaccharide, cyclo{>6)-α-D-glucopyranosyl-(1>3)-α-D -glucopyranosyl-(1>6)-α-D-glucopyranosyl-(1>3)-α-D -glucopyranosyl-(1>}], the “IgA content in feces” value ([2]; First week (age in 8 weeks), 5 w/w % saccharide in AIN-93G diet) was 5.61 mg/g, the “IgA content in feces, relative amount with respect to control” value (from here on “IgA content in feces, relative amount”) ([2]; First week, 5 w/w % saccharide in diet) was 106% and the “IgA content in feces” value ([2]; Fourth week (age in 11 weeks), 5 w/w % saccharide in diet) was 7.09 mg/g. The “IgA content in feces, relative amount” value ([2]; Fourth week, 5 w/w % saccharide in diet) was 328%, the “IgA content in feces” value ([2]; Second week (age in 9 weeks), 5 w/w % saccharide in diet) was 8.47 mg/g and the “IgA content in feces, relative amount” value ([2]; Second week, 5 w/w % saccharide in diet) was 214%. The “IgA content in feces” value ([2]; Third week (age in 10 weeks), 5 w/w % saccharide in diet) was 7.57 mg/g, the “IgA content in feces, relative amount” value ([2]; Third week, 5 w/w % saccharide in diet) was 346% and the “IgA contents in feces of the mice (in words)” value ([2]; added in the purified diet) was “increased”. For the same compound, the “Acetic acid, relative amount to control mice” value ([3]; cecal contents) was “(94%)”, the “Formic acid, relative amount to control mice” value ([3]; cecal contents) was “(258%)” and the “Isobutyric acid, relative amount to control mice” value ([3]; cecal contents) was “(70%)”. The “Isovaleric acid, relative amount to control mice” value ([3]; cecal contents) was “(73%)”, the “Lactic acid, relative amount to control mice” value ([3]; cecal contents) was “(1000%)” and the “Malic acid, relative amount to control mice” value ([3]; cecal contents) was “(179%)”. The “Propionic acid, relative amount to control mice” value ([3]; cecal contents) was “(100%)”, the “Succinic acid, relative amount to control mice” value ([3]; cecal contents) was “(267%)” and the “Total organic acids, relative amount to control mice” value ([3]; cecal contents) was “(109%)”. The “n-Butyric acid, relative amount to control mice” value ([3]; cecal contents) was “(206%)”, the “n-Valeric acid, relative amount to control mice” value ([3]; cecal contents) was “(73%)” and the “Amount of organic acid: Acetic acid” value [3, 6] was 63 µmol/g. For the same compound, the “Amount of organic acid: Formic acid” value [3, 6] was 0.82 µmol/g, the “Amount of organic acid: Isobutyric acid” value [3, 6] was 1.9 µmol/g and the “Amount of organic acid: Isovaleric acid” value [3, 6] was 2.4 µmol/g. For the same compound, the “Amount of organic acid: Lactic acid” value [3, 6] was 4.2 µmol/g, the “Amount of organic acid: Malic acid” value [3, 6] was 1.5 µmol/g and the “Amount of organic acid: Propionic acid” value [3, 6] was 12 µmol/g. For the same compound, the “Amount of organic acid: Succinic acid” value [3, 6] was 5.6 µmol/g, the “Amount of organic acid: Total organic acids” value [3, 6] was 106 µmol/g and the “Amount of organic acid: n-Butyric acid” value [3, 6] was 14 µmol/g. For the same compound, the “Amount of organic acid: n-Valeric acid” value [3, 6] was 0.87 µmol/g, the “lactic acid content in cecal contents (in words)” value ([3]; mouse, in vivo) was “increased” and the “IgA contents in cecal contents (in words)” value ([4]; 4 weeks on saccharide diet) was “highest increase”. The “Weight of cecal contents” value [4, 7] was 169 mg, the “pH of cecal contents” value [4, 7] was 7.16 and the “IgA content in cecal contents” value [4, 8] was 4.4 mg/g. For the same compound, the “IgG content in cecal contents” value [4, 8] was 85 mg/g, the “Relative amount of IFN-γ” value ([1]; ConA 2 μg/ml) was 269% and the “Relative amount of IL-4” value ([1]; ConA 2 μg/ml) was 96%. The “Relative amount of IFN-γ” value ([1]; LPS 2 μg/ml) was 103%, the “Relative amount of IL-4” value ([1]; LPS 2 μg/ml) was 101% and the “IFN-γ production by stimulation” value [1] was “accelerated”. The “IgA secretion in Peyer's patch cells (in words)” value [5, 9] was “increased”, the “production of IL-6 in Peyer's patch cells (in words)” value [5, 9] was “increased” and the “production of TGF-β in Peyer's patch cells (in words)” value [5, 9] was “increased”. For the same compound, the “Relative IL-6 content” value [5, 10] was 326%, the “Relative IgA content” value [5, 10] was 209% and the “Relative TGF-β content” value [5, 10] was 142%.

With `OC[C@H]1O[C@H](O[C@H]2[C@H](O)[C@@H](CO)OC(O)[C@@H]2O)[C@H](O)[C@@H](O)[C@@H]1O` (stereo partly shown) [Nigerose, nigerose] the “Relative amount of IFN-γ” value ([1]; ConA 2 μg/ml) was 63%, the “Relative amount of IL-4” value ([1]; ConA 2 μg/ml) was 100% and the “Relative amount of IFN-γ” value ([1]; LPS 2 μg/ml) was 104%. The “Relative amount of IL-4” value ([1]; LPS 2 μg/ml) was 99% and the “IFN-γ production by stimulation” value [1] was “suppressed”.

Source: patent publication US7973021B2, “Immunomodulating agent in gut” (Kabushiki Kaisha Hayashibara Seibutsu Kagaku Kenkyujo, priority 2005, dated 2011)
